# Results published in USRE49918E1, “Cytotoxic benzodiazepine derivatives” (priority 2011, dated 2024).
# Read-outs that look alike come from different tables or passages of the source.
# B1: huMy9-6-Drug 2 (conjugate, chains of the INN, looked up)
# VH: QVQLVESGGGVVQPGRSLRLSCAASGFTFSSFGMHWVRQAPGKGLEWVAYISSGSFTIYYADSVKGRFTISRDNSKNTLYLQMNSLRAEDTAVYYCARMRKGYAMDYWGQGTLVTVSS
# VL: DVVMTQSPLSLPVTLGQPASISCRSSQIIIHSDGNTYLEWFQQRPGQSPRRLIYKVSNRFSGVPDRFSGSGSGTDFTLKISRVEAEDVGVYYCFQGSHVPHTFGQGTKVEIK
# modifications: Drug 2 payload
# What was measured:
# [1] = test system: KB cells; experiment: In vitro potency (WST-8 cell viability assay), KB; type: cell-based; conditions: Homo sapiens, read-out: IC50 KB
# Procedure: (§1) General Procedure Used: Samples of unconjugated free drug compounds or drug conjugates were added to 96-well flat bottomed tissue culture plates and titrated using serial dilutions to cover the desired molar range. Antigen positive (Ag^+) or Antigen negative (Ag^−) cells were added to the wells in specific cell densities in such a way that there were triplicate samples for each drug concentration for each corresponding cell line. The plates were then incubated at 37° C. in an atmosphere of 5% CO2 for 4-5 days depending on the cell line. COLO 205 (1,000 cells/well), Namalwa (3,000 cells/well), HEL 92.1.7 (3,000 cells/well)—4 days; RH30 (1,000 cells/well), HL60/QC (5,000 cells/well), Ramos (10,000 cells/well), KB (2,000 cells/well), BJAB (2,000 cells/well), NB4 (3,000 cells/well)—5 days, RPMI 8226 (8,000 cells/well)—6 days.
# (§2) At the end of the incubation period cytotoxic potencies were then assessed using a WST-8 based cell viability assay and surviving cells were measured by developing with WST-8 (2-7 hours). The absorbance in each well was measured and the surviving fraction of cells at each concentration was plotted to reveal the cytotoxicity and/or antigen specificity (of the conjugates).
# (§3) Using the general procedure described above, the cytotoxicity of the unconjugated free drug compounds was measured against seven cell lines: KB, a HeLa cell contaminant, HL60/QC, an acute myeloid leukemia cell line, Namalwa, a Burkitt lymphoma cell line, NB4, an acute promyelocytic leukemia cell line, HEL92.1.7, an erythroleukemia cell line, RPMI8226, a multiple myeloma cell line and BJAB, a B-cell leukemia cell line. […] The potency and specificity of the antibody-drug conjugates were measured against antigen-expressing cells, with and without the additions of an excess amount of blocking unconjugated antibody to show specificity of the killing effect. The MY9-6-drug conjugate was extremely potent towards three different antigen-expressing cells: HL60/ATCC, HL60/QC and NB-4, despite the very low antigen expression in NB4 cells. […] Similarly, the huFOLR1-drug conjugate was effective in killing antigen-expressing KB cells in a specific manner. Results are illustrated in FIGS. 25 and 26.
# [2] = test system: Namalwa, a Burkitt lymphoma cell line; experiment: In vitro potency (WST-8 cell viability assay), Namalwa; type: cell-based; conditions: read-out: IC50 Namalwa
# Procedure: as §1, §2, §3
# [3] = test system: HL60/QC cells; experiment: In vitro potency (WST-8 cell viability assay), HL60/QC; type: cell-based, human
# Procedure: as §1, §2, §3
# To compare in vitro potency measurements for the subject conjugates prepared with and without imine reactive reagent, such as sodium bisulfite, huMy9-6-BMPS-1f, huMy9-6-sulfo-SPDB-1f, and huMy9-6-Drug 2 were prepared with and without sodium bisulfite using the in situ sulfonation method (wherein the respective compounds of the invention was first mixed with sodium bisulfite and a bifunctional crosslinker bearing a reactive group, then the reaction mixture, without further purification, was reacted with the huMy9-6 monoclonal antibody as the cell-binding agent). IC50s for the conjugates on HL60-QC cells are shown below.
# [4] = test system: HEL92.1.7, an erythroleukemia cell line; experiment: In vitro potency (WST-8 cell viability assay), HEL92.1.7; type: cell-based; conditions: Homo sapiens
# Procedure: as §1, §2, §3
# [5] = test system: NB4, an acute promyelocytic leukemia cell line; experiment: In vitro potency (WST-8 cell viability assay), NB4; type: cell-based; conditions: read-out: IC50 NB4
# Procedure: as §1, §2, §3
# [6] = test system: RPMI8226, a multiple myeloma cell line; experiment: In vitro potency (WST-8 cell viability assay), RPMI8226; type: cell-based; conditions: Homo sapiens
# Procedure: as §1, §2, §3
# [7] = test system: BJAB, a B-cell leukemia cell line; experiment: In vitro potency (WST-8 cell viability assay), BJAB; type: cell-based; conditions: Homo sapiens, read-out: IC50 BJAB
# Procedure: as §1, §2, §3
# [8] = Phase I clinical evaluation; cited from earlier work
# [9] = test system: HL60/QC tumors; experiment: In vivo efficacy in HL60/QC tumor bearing nude mice; conditions: HL60-QC tumor xenografts; for T/C %: ~20 μg/kg drug dose
# Procedure: In this study, the anti-tumor activity of huMY9-6-SPDB-1f was investigated in female nude mice bearing HL60/QC tumors, a human acute myeloid leukemia model. HL60/QC tumor cells, 2×10^6 cells/mouse were subcutaneously inoculated at a volume of 0.1 mL/mouse in the area over the right shoulder of female athymic nude mice, 5 weeks of age. Eight days after tumor cell inoculation mice were randomized into groups (n=6 per group) by tumor volume. Treatment was initiated the day of randomization, and groups included a control group dosed with PBS (200 μL/injection), or a single treatment at various doses (5 to 100 μg/kg) of huMY9-6-SPDB-1f (50 μg/kg 1f dose corresponded to 2.5 mg/kg antibody dose). […] The minimum effective dose was estimated to be 20 μg/kg, which is about 35-fold lower that the maximum tolerated dose.
# To compare in vivo efficacy of the subject conjugates prepared with or without an imine reactive group, huMy9-6-Drug 2 were formulated with or without 50 μM sodium bisulfite, and the conjugates were used to treat mice bearing HL60-QC tumor xenografts.
# [10] = Homo sapiens, HL-60, free drug, read-out: IC50 HL60/QC
# [11] = HEL 92.1.7, free drug, read-out: IC50 HEL92.1.7
# [12] = RPMI-8226, free drug, read-out: IC50 RPMI8226
Molecule,IC50 ([1]; free drug) [pM],IC50 ([2]; free drug) [pM],"IC50 [3, 10] [pM]","IC50 [4, 11] [pM]",IC50 ([5]; free drug) [pM],"IC50 [6, 12] [pM]",IC50 ([7]; free drug) [pM],other results
COCCOCCOCCN(CC(C)(C)S(C)=S)c1cc(COc2cc3c(cc2OC)C(=O)N2c4ccccc4C[C@H]2C=N3)cc(COc2cc3c(cc2OC)C(=O)N2c4ccccc4C[C@H]2CN3)c1 (stereo partly drawn) [Compound 1d],180,69,32,,,,,
COc1cc2c(cc1OCc1cc(COc3cc4c(cc3OC)C(=O)N3c5ccccc5C[C@H]3C=N4)cc(CSCC(C)(C)SSC)c1)N=C[C@@H]1Cc3ccccc3N1C2=O [Compound 27d],230,,50,140,39,70,40,
COc1cc2c(cc1OCc1cc(COc3cc4c(cc3OC)C(=O)N3c5ccccc5C[C@H]3CN4)cc(CSCC(C)(C)SSC)c1)N=C[C@@H]1Cc3ccccc3N1C2=O [Compound 27e],390,,90,200,130,240,120,
C=C1C[C@H]2C=Nc3cc(OCCCOc4cc5c(cc4OC)C(=O)N4CC(=C)C[C@H]4C=N5)c(OC)cc3C(=O)N2C1 [SJG-136],,,,,,,,maximum tolerated dose [8]: 45 μg/m^2
COc1cc2c(cc1OCc1cccc(COc3cc4c(cc3OC)C(=O)N3c5ccccc5C[C@H]3CN4)c1)N=C[C@@H]1Cc3ccccc3N1C2=O [Compound 29b],7,3,6,7,7,5,3,
COc1cc2c(cc1OCc1cccc(COc3cc4c(cc3OC)C(=O)N3c5ccccc5C[C@H]3C=N4)c1)N=C[C@@H]1Cc3ccccc3N1C2=O [Compound 29a],4,2,1,3.1,2.3,11,1,
COc1cc2c(cc1OCc1cccc(COc3cc4c(cc3OC)C(=O)N3c5ccccc5C[C@H]3CN4)c1)NC[C@@H]1Cc3ccccc3N1C2=O [Compound 29c],,,,,,,,"IC50 ([4]; HEL 92.1.7, read-out: IC50 HEL92.1.7): 27 pM; IC50 [5]: 23 pM; IC50 [1]: 57 pM; IC50 ([6]; RPMI-8226, read-out: IC50 RPMI8226): 160 pM; IC50 [2]: 13 pM; IC50 [7]: 15 pM; IC50 ([3]; Homo sapiens, HL-60, read-out: IC50 HL60/QC): 30 pM"
COc1cc2c(cc1OCc1cc(COc3cc4c(cc3OC)C(=O)N3c5ccccc5C[C@H]3CN4)cc(CSCC(C)(C)SSC)c1)NC[C@@H]1Cc3ccccc3N1C2=O [Compound 27f],4400,,1700,1800,1100,> 3000,1000,
B1,,,,,,,,"Minimum effective dose (μg/kg drug) ([9]; conjugate formulated with 50 μM sodium bisulfite (+)): 19 μg/kg drug; Minimum effective dose (μg/kg drug) ([9]; conjugate formulated without 50 μM sodium bisulfite (−)): 18 μg/kg drug; T/C % ([9]; formulated with 50 μM sodium bisulfite (+)): 16%; T/C % ([9]; formulated without sodium bisulfite (−)): 20%; IC50 ([3]; HL60-QC cells, antigen blocking with 1 μM unconjugated huMy9-6, conjugate prepared with NaHSO3 (+), read-out: IC50 (pM) huMy9-6 blocking): > 3000 pM; IC50 ([3]; HL60-QC cells, antigen blocking with 1 μM unconjugated huMy9-6, conjugate prepared without NaHSO3 (−), read-out: IC50 (pM) huMy9-6 blocking): > 3000 pM; IC50 ([3]; HL60-QC cells, conjugate prepared with NaHSO3 treatment (+), read-out: IC50): 6.8 pM; IC50 ([3]; HL60-QC cells, conjugate prepared without NaHSO3 treatment (−), read-out: IC50): 16 pM"
